Laboratory results: US11446270B2, “Leonurine crystal and use thereof in preparation of insulin sensitizer, hypoglycemic drug and lipid-lowering drug” (ZHUHAI HENGQIN NEW DISTRICT ZHONGZHU ZHENGTAI MEDICAL …, priority 2017, dated 2022)
“Also recorded” adds a separate entry of the source.

Tests used:
Type in all cases: in vivo
[1] = test system: Sprague-Dawley male rats; experiment: Single dosage acute administration, insulin sensitivity test in rats; details: rat, vs DMSO control
Description: Thirty-two Sprague-Dawley male rats (body weight 180-220 g) were randomly divided into 4 groups, gave control solvent and three different doses of leonurine crystal form A respectively. The control solvent group was given an equal volume of DMSO, and the treatment groups were administered with three doses of 30 mg/kg, 60 mg/kg and 120 mg/kg respectively, 8 rats per group, where the leonurine crystal form A was dissolved in DMSO at concentrations of 30 mg/ml, 60 mg/ml and 120 mg/ml respectively. The volume of solvent obtained per rat is one millilitre per kilogram of body weight. The route of administration is gavage, weighing before gavage, and taking blood from tail vein to measure blood glucose. Each rat was tested for insulin sensitivity 1 hour after administration of drugs or control solvent, the dose of insulin selected was 0.5 units per kilogram of body weight, intraperitoneal injection of insulin, blood glucose was measured before injection and at 15, 30, 60, 90, and 120 minutes after injection. The data were analyzed by SPSS 11.5 statistical software, and the results were expressed as mean ±standard error of the mean (mean±SEM), pairwise comparison between groups was examined by one-way analysis of variance (ANOVA), P<0.05 was considered significant difference between the groups.

[2] = test system: New Zealand rabbits; experiment: Carotid atherosclerotic plaque intima-media thickness (IMT) by high-frequency ultrasound in rabbit atherosclerosis model; details: for intimal-medial thickness (IMT) at the largest carotid plaque: high fat diet 8 weeks, vs model group
Description: Forty-two male New Zealand rabbits weighed 2.0 to 2.5 kg were fed with normal diet to adapt to the housing environment for one week before experiment, and then the rabbits were fed with high fat diet (1% cholesterol; SF00-221 SpecialtyFeed Australia) for 8 weeks to establish the rabbit model of atherosclerosis. […] When the rabbits were started to give high fat diet, various drugs or vehicle (NC and MD groups) were simultaneously administered. The drug was administered once a day continuously for 8 weeks and weighed once a week to adjust the dose of drugs. Rabbits were caged in an air-conditioned room (24±1° C. room temperature and 55±5% air humidity) with 12 h light per day and had free access to water and were fed ad libitum. High-frequency ultrasound detection of carotid plaque: the high-frequency microscopy imaging system (Vevo770) was used to detect carotid atherosclerotic plaque at the end of the 8th week of the experiment. The rabbits were anesthetized with 3% pentobarbital sodium in the dose of 30 mg/kg. Using the RMV707B probe (resolution 30 MHz) to observe the carotid bifurcation plaque and measure the blood flow velocity on the carotid artery long axis section by two-dimensional ultrasound. Then adjust direction of the probe so that the angle between the probe and the carotid artery is less than 60° to obtain the long-axis view. The intima-media thickness (IMT) is measured at the maximum end-diastolic plaque. The measurement to detected IMT is taking the vertical distance between the lumen-intimal echo to the medial-outer membrane echo, and detecting the atherosclerotic plaque on the right common carotid artery bifurcation proximal. The carotid ultrasound images and the maximum IMT at the plaque were analyzed, and the morphology of atherosclerotic plaques was evaluated. The data were analyzed by Vevo770 microscopy imaging system software. All measurements were repeated twice in the same area and averaged.

[3] = test system: New Zealand white rabbit; experiment: Serum lipids in hyperlipidemia New Zealand rabbits on high fat diet; details: 12 weeks
Description: Forty-eight male New Zealand rabbits weighed 1.8 to 2.2 kg were housed under 12 h dark-12 h light cycles and allowed food and water ad libitum to adapt to the housing environment for one week, and then randomly divided into 6 groups: • 1) Control group (Normal diet, n=8); Administered intragastrically with ultrapure water; • 2) Model group (High fat diet, n=8); Administered intragastrically with ultrapure water; • 3) Leonurine crystal form A in low dose group (High fat diet, n=8); Administered intragastrically at a dose of 4 mg/kg/day; • 4) Leonurine crystal form A in middle dose group (High fat diet, n=8); Administered intragastrically at a dose of 8 mg/kg/day; • 5) Leonurine crystal form A in high dose group (High fat diet, n=8); […] Administered intragastrically at a dose of 2.5 mg/kg/day; Rabbits were weighed before administered drugs every week, where the dosage of the drug for rabbits is calculate according to the weight; and housed in an air-conditioned room under (24±1° C. room temperature and 55±5% air humidity) and allowed enough food and water ad libitum. After 12 weeks of administration, the rabbits were fasted for 12 h, and blood (2 ml) was drawn from the marginal ear vein for hematology analysis. Hematology analysis: blood samples were let for standing for 2 h and centrifuged (3000 rpm, 10 min, 4° C.) to obtain serum. The serum samples were tested according to the protocols recommended by Nanjing Jiancheng Bioengineering Institute. The total cholesterol (TC), triacylglycerol (TG), low-density cholesterol (LDL-C) and […] (HDL-C) levels in the serum samples were assessed using automatic microplate reader and automatic biochemical analyzer. Statistical analysis: GraphPad Prism 5 software was used to analyze and draw figure. Results were expressed as the mean±standard (mean±SD), and statistical analysis was performed by one-way analysis of variance (ANOVA) or student's t test. A difference with P<0.05 was considered statistically significant. Statistical significance was set at *P<0.05, **P<0.01, ***P<0.001 versus the model group.

[4] = test system: Sprague-Dawley rats; experiment: Chronic administration for 3 weeks, glucose tolerance test (OGTT) in rats; details: rat, vs solvent control, listed as leonurine crystal form A
Description: […] male Sprague-Dawley rats weighed 180 to 220 g were randomly divided into 4 groups, and with vehicle or three different dose of leonurine crystal form A treatment respectively: control group are treated with equal volume of DMSO, and treatment groups are treated with 30 mg/kg per day, 60 mg/kg per day, or 120 mg/kg per day of leonurine crystal form A. Leonurine crystal form A was dissolved in DMSO at concentrates of 30 mg/ml, 60 mg/ml and 120 mg/ml, and the volume of vehicle administered intragastrically in each rat was 1 ml per kg of body weight. The rats were treated with leonurine crystal form A or DMSO once a day for 3 weeks. Oral glucose tolerance test (OGTT) was detected at third week, and the rats were fasted 12 h before OGTT experiment. OGTT experiment was performed 1 h after administered of drugs. Blood glucose and body weight were tested before OGTT. OGTT: Rats were given 25% glucose solution (2 g/kg of body weight, 8 ml/kg) by […], and blood glucose concentration was determined from the tail vein at 15, 30, 60 and 120 min. The drug was discontinued for one week after OGTT, and the body weight and fasting blood-glucose were detected at forth week.
The data were analyzed by SPSS statistical software (version 11.5), and results were expressed as the mean±standard error of the mean (mean±SEM). Multiple group comparisons were tested by one-way analysis of variance (ANOVA). P<0.05 was considered as statistically significant. […] At 15 min time point, the glucose tolerance curve was shifted down. […] Moreover, at 60 min time point, the glucose tolerance curve also was moved down at the dose of 30 mg/kg/d and 120 mg/kg/d.

[5] = dose not stated, listed as leonurine crystal form A
[6] = high dose group 16 mg/kg/day intragastric, vs model group

COc1cc(C(=O)OCCCCNC(=N)N)cc(OC)c1O [crystal form A, 4-guanidino-1-butyl 4-hydroxy-3,5-dimethoxybenzoate]
insulin sensitivity curve (blood glucose after insulin injection) ([1]; single gavage 30 mg/kg): basically coincident with the control group
insulin sensitivity curve (blood glucose after insulin injection) ([1]; single gavage 60 mg/kg, 60 minute time point, listed as leonurine crystal form A, 60 mg/kg): reached statistical significance; also recorded: decreased significantly
insulin sensitivity curve (blood glucose after insulin injection) ([1]; single gavage 120 mg/kg, 60 minute time point): no statistically significant difference was observed
carotid plaque thickness / IMT growth induced by high fat ([2]; high fat diet 8 weeks, 4, 8, 16 mg/kg/day, dose-dependent effect): significantly inhibited IMT growth
intimal-medial thickness (IMT) at the largest carotid plaque ([2]; high dose group 16 mg/kg/d): decrease plaque thickness
intimal-medial thickness (IMT) at the largest carotid plaque ([2]; medium dose group 8 mg/kg/d): decrease plaque thickness
serum total cholesterol (TC) [3, 5]: reduce; also recorded: decrease
serum triglycerides / total triacylglycerol (TG) [3, 5]: reduce; also recorded: decrease
serum total cholesterol (TC) [3, 6]: reduced
serum triacylglycerol (TG) [3, 6]: reduced
serum triacylglycerol (TG) ([3]; middle dose group 8 mg/kg/day intragastric, vs model group): reduced
glucose tolerance curve (blood glucose) ([4]; 30 mg/kg/d for 3 weeks, 15 minute time point, 30 mg/kg/day): reduce the degree of elevation of blood glucose; also recorded: decrease the level of blood glucose
glucose tolerance curve (blood glucose) ([4]; 30 mg/kg/d for 3 weeks, 60 minute time point, 30 mg/kg/day): reduce the degree of elevation of blood glucose; also recorded: decrease the level of blood glucose
glucose tolerance curve (blood glucose) ([4]; 120 mg/kg/d for 3 weeks, 60 minute time point, 120 mg/kg/day): reduce the degree of elevation of blood glucose; also recorded: decrease the level of blood glucose
